Test results as given in PubChem BioAssay AID1963981 (Molecular Pharmacology Branch, DTP, NCI, 2024).

Test system: 354836-022-R-J1-PDC multicell spheroid viability
Experiment: Anticancer human tumor 354836-022-R-J1-PDC patient-derived head and neck squamous cell carcinoma cell line growth inhibition [PI3K]
Settings: for IC50: curve of first compound; for viability, T/C: stronger effect = lower value
Procedure, shortened: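 Tumor cells grown as multi-cell spheroids with HUVEC endothelial cells and MSC fibroblast-like stroma were treated with targeted agents combined with inavolisib, alpelisib, duvelisib or copanlisib. Doses fell in half-log steps from near clinical Cmax, else from 10 microM. Viability was measured.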
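Further: spheroids exposed to agents for seven days before the viability read.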

Cn1cnc2c(F)c(Nc3ccc(Br)cc3Cl)c(C(=O)NOCCO)cc21 + CC(Nc1ncnc2nc[nH]c12)c1cc2cccc(Cl)c2c(=O)n1-c1ccccc1 showed an IC50 (second compound 0.0316 µM) of over 3000 nM, an IC50 (second compound 0.1 µM) of 2650 nM and an IC50 (second compound 0.316 µM) of 2670 nM. For the same compound, the IC50 (second compound 1 µM) was over 3000 nM, the IC50 (second compound 3.16 µM) was over 3000 nM and the IC50 (second compound 10 µM) was over 3000 nM. The viability, T/C (second compound 0.0316 µM, first compound 0.00949 µM) was 94.3%, the viability, T/C (second compound 0.0316 µM, first compound 0.03 µM) was 90.4% and the viability, T/C (second compound 0.0316 µM, first compound 0.0949 µM) was 87.4%. For the same compound, the viability, T/C (second compound 0.0316 µM, first compound 0.3 µM) was 71.9%, the viability, T/C (second compound 0.0316 µM, first compound 0.949 µM) was 69.4% and the viability, T/C (second compound 0.0316 µM, first compound 3 µM) was 49.4%. It also gave a viability, T/C (second compound 0.1 µM, first compound 0.00949 µM) of 89.9%, a viability, T/C (second compound 0.1 µM, first compound 0.03 µM) of 80.4% and a viability, T/C (second compound 0.1 µM, first compound 0.0949 µM) of 70.3%. For the same compound, the viability, T/C (second compound 0.1 µM, first compound 0.3 µM) was 81.3%, the viability, T/C (second compound 0.1 µM, first compound 0.949 µM) was 64.6% and the viability, T/C (second compound 0.1 µM, first compound 3 µM) was 47.7%. For the same compound, the viability, T/C (second compound 0.316 µM, first compound 0.00949 µM) was 89.7%, the viability, T/C (second compound 0.316 µM, first compound 0.03 µM) was 83.9% and the viability, T/C (second compound 0.316 µM, first compound 0.0949 µM) was 94.2%. For the same compound, the viability, T/C (second compound 0.316 µM, first compound 0.3 µM) was 72.1%, the viability, T/C (second compound 0.316 µM, first compound 0.949 µM) was 74.8% and the viability, T/C (second compound 0.316 µM, first compound 3 µM) was 46.6%. For the same compound, the viability, T/C (second compound 1 µM, first compound 0.00949 µM) was 90.5%, the viability, T/C (second compound 1 µM, first compound 0.03 µM) was 83.8% and the viability, T/C (second compound 1 µM, first compound 0.0949 µM) was 79.6%. It also gave a viability, T/C (second compound 1 µM, first compound 0.3 µM) of 81.2%, a viability, T/C (second compound 1 µM, first compound 0.949 µM) of 74.5% and a viability, T/C (second compound 1 µM, first compound 3 µM) of 55.6%. For the same compound, the viability, T/C (second compound 3.16 µM, first compound 0.00949 µM) was 99.5%, the viability, T/C (second compound 3.16 µM, first compound 0.03 µM) was 86.9% and the viability, T/C (second compound 3.16 µM, first compound 0.0949 µM) was 71.1%. For the same compound, the viability, T/C (second compound 3.16 µM, first compound 0.3 µM) was 88.8%, the viability, T/C (second compound 3.16 µM, first compound 0.949 µM) was 81% and the viability, T/C (second compound 3.16 µM, first compound 3 µM) was 63.5%. For the same compound, the viability, T/C (second compound 10 µM, first compound 0.00949 µM) was 85.5%, the viability, T/C (second compound 10 µM, first compound 0.03 µM) was 89.2% and the viability, T/C (second compound 10 µM, first compound 0.0949 µM) was 87.1%. It also gave a viability, T/C (second compound 10 µM, first compound 0.3 µM) of 77.1%, a viability, T/C (second compound 10 µM, first compound 0.949 µM) of 68.2% and a viability, T/C (second compound 10 µM, first compound 3 µM) of 54.8%.
